Results on three compounds are retold here after patent US5376658A, “5,10-methylene-tetrahydrofolate as a modulator of a chemotherapeutic agent” (priority 1993, dated 1994).

Structures are written as SMILES. Read-outs that look alike come from different tables or passages of the source.

The test system of data set [1] is hepatic colonic carcinoma. Description: Tumor weight in rats bearing transplanted hepatic colonic carcinoma. Type of data set: in vivo, rat. To be noted: Day 17 after transplantation; 30 mg/kg each; average of 3 rats; control 5.84. An excerpt:
(§1) The present inventors have considerable experience with this model, and the antitumor effects of 5-FU shown are typical results, as are the TS and folate assays of control and 5-FU-only-treated rats. […] In fact, the "free TS" levels in the (6R,S)-FH4 -only-treated rats were the lowest of all arms of the study.
>94% by HPLC). The (6 R,S)FH 4 was weighed, dissolved in normal
saline, and injected daily by tail vein administration using the airfree
Protector device to prevent oxidative destruction of the folate.
(§2) ^b Inoculation of 1 × 10^6 viable colon tumor
(§3) (nitrosoguanidineinduced) cells under the liver capsule on Day 1 (Carlsso
(§4) et al., Anticancer Res. 10:813-16 (1990)). Animals sacrificed on Day 17
(§5) for excision of single liver tumor nodules for pharmacodynamic studies.

In data set [2] the test system is 5,10-CH2 FH4 and FH4 levels in liver tumor. Description: Folate assay (5,10-CH2 FH4 and FH4) in liver tumors of rats. To be noted: 30 mg/kg each, 24 h after last injection. In kind it is in vivo, rat.
Source text: as §1, §2, §3, §4, §5
(§6) ^d Assays done as described (Spears et al. Adv. Exp. Med. Biol.

The target in data set [3] is T1, thymidylate synthase (TS) (Mus musculus, UniProt P07607).
T1 construct: [6-3H]FdUMP titration of free TS
T1 sequence (P07607 whole entry): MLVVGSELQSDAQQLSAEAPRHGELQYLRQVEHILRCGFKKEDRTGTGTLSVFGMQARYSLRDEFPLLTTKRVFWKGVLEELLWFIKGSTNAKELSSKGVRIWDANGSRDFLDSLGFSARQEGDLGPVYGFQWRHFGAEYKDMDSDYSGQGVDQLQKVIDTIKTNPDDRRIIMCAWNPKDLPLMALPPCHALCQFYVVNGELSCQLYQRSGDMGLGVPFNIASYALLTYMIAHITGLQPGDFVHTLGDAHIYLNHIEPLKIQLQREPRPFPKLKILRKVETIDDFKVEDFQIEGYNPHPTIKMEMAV
The conditions noted are these: murine colon cancer; cited from earlier work.

Data set [4] addresses T1, thymidylate synthase (TS). Description: TS inhibition in murine colon carcinoma tumor CA51 (Tumor 51) after i.p. 5-FU with or without CH2 FH4. In kind it is in vivo. To be noted: for Free TS / inhibition at 80 mg/kg: 5-FU 80 mg/kg i.p.; for Free TS: CH2 FH4 27 mg/kg in (6R), not corrected; for inhibition at 80 mg/kg: mouse, ip, baseline total TS 10.00 pmol/g. The protocol:
(6R, S)-CH2 FH4 was prepared by the DEAE-cellulose column procedure, described above, using step-elution of the material as previously reported for purification of nucleotides (Moran et al., Proc. Natl. Aca. Sci. USA 76:1456-60 (1979)). […] Because of the high formaldehyde, this solution was over 2 mM in CH2 FH4, with less FH4 present as the solution isomer. After 20 min at room temperature, this solution was applied to a 1×3-cm DEAE-cellulose column; in the last step, the 500 mM NH4HCO3 (pH 8.0) fraction (30 mL) was pooled, lyophilized to dryness, and stored under vacuum in glass ampoules. This fraction contains both diastereomers of CH2 FH4.
On the day of reconstituting the above CH2 FH4, mice bearing subcutaneous murine colon carcinoma Tumor 51 were administered intraperitoneal (i.p.) 5-FU, with or without concomitant i.p. CH2 FH4 by separate injection. The 5-FU was given at a dose of 1.6 mg per mouse, about 80 mg/kg. The CH2 FH4 was given at a dose of 0.5 mL of the 2.4 mM material ([…]), above. The in vivo methodologies were essentially as had previously been described (C. P. Spears, et al., Cancer Res. 42:450-56 (1982)). […] The levels of apparent free TS in tumors of mice receiving CH2 FH4 concomitant with 5-FU were at, or below, that level due to exchange-labeling of endogenous TS-FdUMP-folate ternary complexes in the cytosolic extracts. […] This is exactly the qualitative difference between sensitivity and resistance to 5-FU previously established (see Spears et al., Cancer Res. 42:450-52 (1982)).

For data set [5], the system named is TS. Description: TS assay in liver tumors of rats bearing transplanted hepatic colonic carcinoma. Type of data set: in vivo, rat. To be noted: 30 mg/kg each; 24 h after last injection; control 18.96.
Source text: as §1, §2, §3, §4, §5, §6

For data set [6] the following is noted: humans; cited from earlier work.
Another data set addresses T2, L. casei TS (Lacticaseibacillus casei, UniProt P00469).
T2 construct: spectrophotometric cofactor assay with dUMP
T2 sequence (P00469 1-316): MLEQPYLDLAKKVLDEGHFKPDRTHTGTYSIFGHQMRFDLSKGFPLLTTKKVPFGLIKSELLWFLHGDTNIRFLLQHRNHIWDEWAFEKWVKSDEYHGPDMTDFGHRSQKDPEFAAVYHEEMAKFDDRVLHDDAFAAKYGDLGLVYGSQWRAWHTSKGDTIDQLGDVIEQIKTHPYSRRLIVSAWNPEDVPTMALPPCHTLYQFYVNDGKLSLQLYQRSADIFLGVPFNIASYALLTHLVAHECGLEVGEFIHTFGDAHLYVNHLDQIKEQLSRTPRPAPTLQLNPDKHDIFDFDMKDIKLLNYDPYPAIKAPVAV
Description: L. casei/dUMP spectrophotometric cofactor assay. In kind it is biochemical. How it is done:
CH2 FH4 as the equal mixture of diastereomers (optical isomers or enantiomers at the C6-position; both diastereomers are of the natural L-configuration at the alpha-carbon position of the glutamate moiety) was prepared from (6R,S)-tetrahydrofolic acid, commercially available from Sigma, in the examples described below. The method of synthesis has been described previously (C. P. Spears and B. Gustavsson, Adv. Exp. Med. Biol. 244:98-104 (1988)). To (6R, S)-tetrahydrofolate (6R, S-FH4) powder, (100 mg) is added 360 μL of 1.0M Na Ascorbate, pH 6.5, 68 μL of 37% (w/w) formaldehyde (CH2 O), and 16 mL phosphate buffer, pH 7.0. A 10-min room temperature incubation allows completion of formation of (6R,S)-CH2 FH4. This material is applied to a DEAE-cellulose column using a modification of a well-known procedure (Kaufman et al., J. Biol. Chem. 238:1498-1500 (1963)). A step elution with NH4 HCO3 buffers of increasing concentration and pH, leads to isolation of CH2 FH4 in the last pooled fraction. […] CH2 FH4, prepared with [^14 C]CH2 O as described previously (Moran et al. Proc. Natl. Acad. Sci. USA 76:1456-60, 1979). […]

The target of data set [7] is T3, TS (Homo sapiens, UniProt P04818).
T3 construct: activity of TS in the intact cells; endogenous in cells; host or cells: CCRF-CEM human lymphoblast cells
T3 sequence (P04818 whole entry): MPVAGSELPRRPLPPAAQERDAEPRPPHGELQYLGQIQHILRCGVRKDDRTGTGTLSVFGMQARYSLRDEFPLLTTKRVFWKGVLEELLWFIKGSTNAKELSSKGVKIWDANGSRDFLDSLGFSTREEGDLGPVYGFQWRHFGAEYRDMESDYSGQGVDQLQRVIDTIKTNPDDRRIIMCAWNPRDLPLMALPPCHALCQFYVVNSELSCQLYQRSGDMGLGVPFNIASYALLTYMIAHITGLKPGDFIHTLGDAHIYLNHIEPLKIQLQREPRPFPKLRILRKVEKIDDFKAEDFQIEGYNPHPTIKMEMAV
Description: TS activity in intact CCRF-CEM human lymphoblast cells by tritiated water release from [5-3H]deoxyuridine. To be noted: for tritiated water production: 48 μM; for remaining activity at 48 µM: read-out: tritiated water production, % of control. In kind it is cell-based. The protocol: (§7) The unnatural diastereomer, (6S)-CH2 FH4 prepared by DEAE-column,potassium bicarbonate separation from the natural diasteromer as described in Example 8, was dissolved in 0.2M Tris-HCl buffer, pH 7.0, containing sodium ascorbate (100 mM) and 2-mercaptoethanol. This preparation was from the same lot of material described in Example 8. As noted in the footnote of Table VII, in the absence of supplemental formaldehyde, the yield of dextrancharcoal isolated complex was 38.5% of the value for the natural (6R)-CH2 FH4 (with added 6 mM formaldehyde).
Separate cultures tubes at 37° C. with 1 ml each of CCRF-CEM human lymphoblast cells, 4.6×10^5 cells/ml, in exponential log phase growth were exposed to the unnatural diastereomer, (6R)-FH4 (made up from (6S)-CH2 FH4, 1.56 mM stock solution, with 32 microliters added to each ml of cells), 48 μM final concentration. Cells were incubated for 30, 60, and 120 minutes of drug exposure, prior to addition of [5-^3 H]deoxyuridine (150,000 CPM of approx. 18-20 Ci/mmo. spec. act.) and 10 min. 37° C. incubation prior to 3% charcoal addition for isolation of tritiated water. The amount of tritiated water is proportional to the activity of TS in the intact cells (N. Kundu et al., J. Med. Chem. 33:1975-79 (1990)).

Data set [8] has as its system transplanted colon cancer. Description: Comparison of natural and unnatural CH2 FH4 diastereomers in rats bearing transplanted colon cancer. In kind it is in vivo, rat. The conditions noted are these: 15 mg/kg, Day 17, no fluorinated pyrimidine. An excerpt:
A study has been completed, for comparison of natural (6R)-CH2 FH4 and unnatural (6S)-CH2 FH4 diastereomers. The preparation of the two forms was done as described by Kisliuk, et al., Cancer Treat. Rep. 61:647-50 (1977), using DEAE-cellulose column chromatography, with elution by potassium bicarbonate buffer. The two separate major peaks were individually pooled, lyophilized to dryness, and used for injection. As in the original detailed description of the method of Kisliuk, et al. (Biochem. 20:929-934), the methylene content was substoichiometric with tetrahydrofolate (FH4). That is, methylene units were present in apparently lower concentration than FH4 concentrations.
Rats bearing the transplanted colon cancer, as described in Example 4 and in Carlsson, et al., Anticancer. Res. 10:813-816, 1991, were treated with either the (6R)-CH2 FH4 or the (6S)-CH2 FH4, formulated and injected according to the methods described in Table IV, except that the injected amounts were 15 mg/kg per dose.
At Day 17, the rats were sacrificed, and the tumors were measured for both volume end weight. Volumes were calculated by the equation for an ellipsoid in revolution, V=(4/3)πab^2 were a=the long diameter/2 and b=the perpendicular short diameter/2.
The filled circles are the weights and volumes of tumors of rats treated with the unnatural (6S)-CH2 FH4 diastereomer (mostly (6R)-FH4 material in dilute solution and blood); the triangles are results for the natural (6R)-CH2 FH4 (mostly (6S)-FH4); and the open circles, control non-treated tumors. It is emphasized here that no fluorinated pyrimidine was used, just the folate injections.

A further data set concerns the target T4, L. casei TS-[3H]FdUMP (Lacticaseibacillus casei, UniProt P00469).
T4 sequence (P00469 1-316): T2 sequence (P00469 1-316)
Description: TS-[3H]FdUMP-folate ternary complex binding assay. How it is done: The CH2 FH4 was prepared as the racemic (6R, S) material from (6R, S)-FH4 and excess formaldehyde, and DEAE-column isolation as described in FIG. 1. This preparation was essentially free of free formaldehyde based on colorimetric assay of bulk material (Nash, Biochem. J. 55:416-21 (1953)).
At all concentrations (total assays volume 150 μl ), excess formaldeyde was required to obtain maximal binding (which was still only 19.3% of stoichiometric binding). A notable effect was the increasing need for formaldehyde addition with increasing dilution, to obtain maximal CH2 FH4 assay recovery.
TS[^3 H]FdUMP-folate ternary complex formation without formaldehyde
addition was 38.5% of the value for the natural (6R)CH2 FH4 wit
6 mM formaldehyde added. (About 1 pmole of parent CH2 FH4 was
^b Only 11.8 ± 7.9% of maximal L. casei TS[^3 H]FdUMP-folate
ternary complex formation (using 6 mM formaldehyde concentration) which i
as §7

The compound `O=c1[nH]cc(F)c(=O)[nH]1` [5-FU, 5-Fluorouracil] returned a Tumor weight in [1] of 1.03 g. The “5,10-CH2 FH4” value in data set [2] (control 0.69) was 4.11 nmol/g. Moreover, the FH4 in data set [2] (control 1.18) is reported as 2.39 nmol/g. Moreover, the “TS inhibition as therapeutic mechanism” value in [3] was “complete inhibition of TS”. Moreover, the “Free TS” value was determined as 1.67 pmol/g in data set [4] (1 h), 1.00 pmol/g in data set [4] (3 h) and 1.27 pmol/g in data set [4] (6 h). For the same compound, in data set [4] (minimal correction factor of 5%, average / all tumors), the “TS inhibition, corrected” value is listed as 92%. The inhibition (as a rule, the percentage by which the read-out fell short of the control) at 80 mg/kg is 83.3% in data set [4] (read-out: % Inhibition (TS), 1 h); 90% in data set [4] (read-out: % Inhibition (TS), 3 h); 87.3% in data set [4] (read-out: % Inhibition (TS), 6 h). In addition, the TS in the data set with TS [5] is given as 9.03 p mole/g.
As to `C=O` [CH2 O, formaldehyde], the “oral LDLo (lowest lethal dose)” value in data set [6] is given as 36 mg/kg.
Regarding `Nc1nc2c(c(=O)[nH]1)N1CN(c3ccc(C(=O)N[C@@H](CCC(=O)O)C(=O)O)cc3)C[C@@H]1CN2` [(6S)-CH2 FH4], the cofactor activity result at L. casei TS is “No cofactor activity”. Further, the tritiated water production on TS [7] (30 min exposure, control 2566) amounted to 2004 CPM; at TS [7] (60 min exposure, control 2662), 1750 CPM; on TS [7] (120 min exposure, control 2902), 1146 CPM. Moreover, the remaining activity at 48 µM on TS [7] (CCRF-CEM, 30 min) was found to be 78.1%; at TS [7] (CCRF-CEM, 60 min), 65.7%; at TS [7] (CCRF-CEM, 120 min) it was 39.5%. Further, the inhibition at 48 µM against TS [7] (CCRF-CEM, two hour time point) worked out at 60.5%. In addition, the “Tumor volume ± SE” value in data set [8] (control 7.81) came out at 0.74. In addition, the “Tumor weight ± SE” value in data set [8] (control 7.93) came to 2.14. In addition, at L. casei TS-[3H]FdUMP (in the presence of formaldehyde), the “TS-[3H]FdUMP-ternary complex yield, % of value for natural (6R)-CH2 FH4 with 6 mM formaldehyde” value is 23.3%. The “TS-[3H]FdUMP-folate ternary complex formation, % of value for natural (6R)-CH2 FH4 with 6 mM formaldehyde” value on L. casei TS-[3H]FdUMP (without formaldehyde addition) turned out to be 38.5%.
